What all share (format): functional, Homo sapiens
Design in all cases: dose or concentration left out as unconfirmed

The test system of assay [1] is Colon cancer organoid. The experiment in a line: Optimized Dual-Glo assay to identify co-culture induced drug vulnerabilities using donated chemical probes and chemogenomics kinase set in O06 CRC organoid and F06 CAF mono and co-culture. […] Cell viability is reported both mono and co-culture models.
In assay [2] the test system is Colon cancer organoid. Nature of the assay: Optimized Dual-Glo assay to identify co-culture induced drug vulnerabilities using donated chemical probes and chemogenomics kinase set in O14 CRC organoid and F14 CAF mono and co-culture. […] Cell viability is reported both mono and co-culture models.
Assay [3] relates to Colon cancer organoid. The experiment in a line: Optimized Dual-Glo assay to identify co-culture induced drug vulnerabilities using donated chemical probes and chemogenomics kinase set in O20 CRC organoid and F20 CAF mono and co-culture. […] Cell viability is reported both mono and co-culture models.
Where [4] appears, read: Culture type Co-Culture, Transduced with Lucferase2-P2A-EGFP lentivirus.
[5] abbreviates: Culture type Co-Culture, Transduced with Renilla-dsRed lentivirus.
The mark [6] stands for this setting: Culture type Mono-Culture, Transduced with Lucferase2-P2A-EGFP lentivirus.
Where [7] appears, read: Culture type Mono-Culture, Transduced with Renilla-dsRed lentivirus.

Molecules are shown by their SMILES.

Consider three compounds from ChEMBL document CHEMBL5674860, “Optimized Dual-Glo Assay to identify co-culture-induced drug vulnerabilities in 3D CRC models” (2024).

With `C=CC(=O)N1CCC([C@@H]2CCNc3c(C(N)=O)c(-c4ccc(Oc5ccccc5)cc4)nn32)CC1` [ZANUBRUTINIB], the “Cell Viability” value in the assay with Colon cancer organoid [1] (setting [4]) was 36.1998%; in the assay on Colon cancer organoid [1] (setting [5]) it was 136.235%; with Colon cancer organoid [1] (setting [6]), 10.7372%; with Colon cancer organoid [1] (setting [7]), 131.234%; with Colon cancer organoid [2] (setting [4]) it was 47.5574%; in the assay on Colon cancer organoid [2] (setting [5]), 261.02%. For the same compound, the “Cell Viability” value was found to be 57.577% in the assay on Colon cancer organoid [2] (setting [6]); 123.54% in the assay on Colon cancer organoid [2] (setting [7]); 8.425% with Colon cancer organoid [3] (setting [4]); 202.782% in the assay with Colon cancer organoid [3] (setting [5]); 10.0679% in the assay with Colon cancer organoid [3] (setting [6]); 138.33% in the assay on Colon cancer organoid [3] (setting [7]).
In the case of `Nc1nc(NCc2ccccc2)nc(-c2cccc(CO)c2)n1` [ZINC32547799], the “Cell Viability” value with Colon cancer organoid [1] (setting [4]) is reported as 97.3324%; with Colon cancer organoid [1] (setting [5]), 116.001%; in the assay on Colon cancer organoid [1] (setting [6]) it was 131.751%; in the assay on Colon cancer organoid [1] (setting [7]) it was 105.708%; in the assay on Colon cancer organoid [2] (setting [4]) it was 88.7631%; with Colon cancer organoid [2] (setting [5]), 96.1691%. In addition, the “Cell Viability” value with Colon cancer organoid [2] (setting [6]) is 137.995%; with Colon cancer organoid [2] (setting [7]), 97.2983%; in the assay on Colon cancer organoid [3] (setting [4]), 123.978%; in the assay on Colon cancer organoid [3] (setting [5]), 66.6285%; in the assay on Colon cancer organoid [3] (setting [6]) it was 56.0193%; in the assay with Colon cancer organoid [3] (setting [7]), 93.8657%.
For the compound `FC(F)c1nc2ccccc2n1-c1nc(N2CCOCC2)nc(N2CCOCC2)n1` [ZSTK-474], the “Cell Viability” value was 29.4296% in the assay on Colon cancer organoid [1] (setting [4]); 101.088% with Colon cancer organoid [1] (setting [5]); 21.0208% in the assay with Colon cancer organoid [1] (setting [6]); 93.8001% in the assay on Colon cancer organoid [1] (setting [7]); 66.4922% with Colon cancer organoid [2] (setting [4]); 94.4439% in the assay on Colon cancer organoid [2] (setting [5]). Moreover, the “Cell Viability” value worked out at 94.5351% in the assay with Colon cancer organoid [2] (setting [6]); 81.6405% in the assay with Colon cancer organoid [2] (setting [7]); 123.987% with Colon cancer organoid [3] (setting [4]); 95.7276% in the assay on Colon cancer organoid [3] (setting [5]); 79.3506% in the assay with Colon cancer organoid [3] (setting [6]); 60.5776% with Colon cancer organoid [3] (setting [7]).
